The test system of assay [1] is Staphylococcus aureus. The experiment in a line: Antibacterial activity against methicillin-resistant Staphylococcus aureus after overnight incubation by micro broth dilution analysis. The format is functional. Background: In broth dilution the organism is exposed to a series of concentrations in liquid medium.
Assay [2] relates to Staphylococcus epidermidis. The experiment in a line: Antibacterial activity against methicillin-resistant Staphylococcus epidermidis after overnight incubation by micro broth dilution analysis. The format is functional.
Assay [3] deals with Staphylococcus haemolyticus. The experiment in a line: Antibacterial activity against methicillin-resistant Staphylococcus haemolyticus after overnight incubation by micro broth dilution analysis. The format is functional.
The test system of assay [4] is Staphylococcus aureus. Nature of the assay: Antibacterial activity against methicillin-resistant Staphylococcus aureus assessed as zone of inhibition at 50 ug/mL after 24 hrs by agar disc diffusion method. The format is functional. The conditions noted are these: read-out: IZ.
Assay [5] deals with Staphylococcus aureus. Nature of the assay: Antibacterial activity against methicillin-resistant Staphylococcus aureus assessed as zone of inhibition at 200 ng/mL after 24 hrs by agar disc diffusion method. The format is functional. The conditions noted are these: read-out: IZ. On the technique in general: Agar diffusion results depend on both activity and mobility in agar.
The test system of assay [6] is Staphylococcus aureus. Nature of the assay: Antibacterial activity against methicillin-resistant Staphylococcus aureus assessed as zone of inhibition at 400 ng/mL after 24 hrs by agar disc diffusion method. The format is functional. The conditions noted are these: read-out: IZ.
For assay [7], the system named is Staphylococcus aureus. Nature of the assay: Antibacterial activity against methicillin-resistant Staphylococcus aureus assessed as zone of inhibition at 800 ng/mL after 24 hrs by agar disc diffusion method. The format is functional. The conditions noted are these: read-out: IZ.
Assay [8] concerns Staphylococcus epidermidis. The experiment in a line: Antibacterial activity against methicillin-resistant Staphylococcus epidermidis assessed as zone of inhibition at 20 ug/mL after 24 hrs by agar disc diffusion method. The format is functional. The conditions noted are these: read-out: IZ.
Assay [9] relates to Staphylococcus epidermidis. Nature of the assay: Antibacterial activity against methicillin-resistant Staphylococcus epidermidis assessed as zone of inhibition at 200 ng/mL after 24 hrs by agar disc diffusion method. The format is functional. The conditions noted are these: read-out: IZ.
The subject of assay [10] is Staphylococcus epidermidis. The experiment in a line: Antibacterial activity against methicillin-resistant Staphylococcus epidermidis assessed as zone of inhibition at 400 ng/mL after 24 hrs by agar disc diffusion method. The format is functional. The note with it: read-out: IZ.
Assay [11] deals with Staphylococcus epidermidis. Nature of the assay: Antibacterial activity against methicillin-resistant Staphylococcus epidermidis assessed as zone of inhibition at 800 ng/mL after 24 hrs by agar disc diffusion method. The format is functional. The conditions noted are these: read-out: IZ.
For assay [12], the system named is Staphylococcus haemolyticus. Nature of the assay: Antibacterial activity against methicillin-resistant Staphylococcus haemolyticus assessed as zone of inhibition at 50 ug/mL after 24 hrs by agar disc diffusion method. The conditions noted are these: read-out: IZ. The format is functional.
Assay [13] deals with Staphylococcus aureus. Nature of the assay: Induction of cellular content release in methicillin-resistant Staphylococcus aureus assessed as DNA content by measuring optical density at 260 nm at MIC after 240 mins by UV-visible spectrophotometric analysis. The format is functional.
The subject of assay [14] is Staphylococcus aureus. The experiment in a line: Antibiofilm activity against methicillin-resistant Staphylococcus aureus at MIC after 24 hrs by crystal violet staining-based UV-visible spectrophotometric analysis. The format is functional, organism-based.
The test system of assay [15] is Staphylococcus aureus. Nature of the assay: Antibiofilm activity against methicillin-resistant Staphylococcus aureus planktonic biofilm assessed as optical density at 492 nm at MIC after 24 hrs by crystal violet staining-based UV-visible spectrophotometric analysis. The format is functional.
The subject of assay [16] is Staphylococcus haemolyticus. The experiment in a line: Antibacterial activity against methicillin-resistant Staphylococcus haemolyticus assessed as zone of inhibition at 200 ng/mL after 24 hrs by agar disc diffusion method. The format is functional. The conditions noted are these: read-out: IZ.
For assay [17], the system named is Staphylococcus haemolyticus. Nature of the assay: Antibacterial activity against methicillin-resistant Staphylococcus haemolyticus assessed as zone of inhibition at 400 ng/mL after 24 hrs by agar disc diffusion method. The format is functional. The note with it: read-out: IZ.
Assay [18] deals with Staphylococcus haemolyticus. Nature of the assay: Antibacterial activity against methicillin-resistant Staphylococcus haemolyticus assessed as zone of inhibition at 800 ng/mL after 24 hrs by agar disc diffusion method. The format is functional. The conditions noted are these: read-out: IZ.
Assay [19] relates to Staphylococcus aureus. Nature of the assay: Antibiofilm activity against methicillin-resistant Staphylococcus aureus assessed as optical density at 492 nm at 1 to 2 times MIC after 24 hrs by crystal violet staining-based UV-visible spectrophotometric analysis. The format is functional.
In assay [20] the test system is Staphylococcus aureus. The experiment in a line: Induction of pore formation in methicillin-resistant Staphylococcus aureus cell membrane assessed as increase in ferricyanide mediated cellular leakage after 2 hrs by DCPIP dye-based cyclic voltammetric analysis. The format is functional, organism-based.
The test system of assay [21] is Staphylococcus aureus. The experiment in a line: Induction of pore formation in methicillin-resistant Staphylococcus aureus cell membrane assessed as increase in ferricyanide mediated potassium efflux after 2 hrs by DCPIP dye-based cyclic voltammetric analysis. The format is functional, organism-based.
Assay [22] deals with Staphylococcus aureus. The experiment in a line: Induction of pore formation in methicillin-resistant Staphylococcus aureus cell membrane assessed as increase in ferricyanide mediated DNA damage after 2 hrs by DCPIP dye-based cyclic voltammetric analysis. The format is functional, organism-based.
The subject of assay [23] is Staphylococcus aureus. Nature of the assay: Antibiofilm activity against methicillin-resistant Staphylococcus aureus at 2 times MIC after 24 hrs by crystal violet staining-based UV-visible spectrophotometric analysis. The format is functional, organism-based.

The structures appear in SMILES notation. Converted amounts (≈) assume the structure as drawn. The source made the active and inactive calls. The calls are words filed in the database; no cut-off is given here.

Take `O=S(=O)(F)/C=C/c1ccc(C(F)(F)F)nc1`: the MIC99 in assay [1] turned out to be 0.811 µg/mL (≈ 3.18 µM); in [2], 0.838 µg/mL (≈ 3.28 µM); in [3] it was 40 µg/mL (≈ 157 µM). Besides, the zone of inhibition at 50 µg/mL in assay [4] came out at 12.2 mm; in assay [12], 5.5 mm. Moreover, the zone of inhibition at 0.2 µg/mL was 5.1 mm in assay [5] and 4.2 mm in assay [9]. In addition, the zone of inhibition at 0.4 µg/mL was found to be 7.2 mm in [6] and 5.1 mm in assay [10]. In addition, the zone of inhibition at 0.8 µg/mL in assay [7] was 11.2 mm; in assay [11] it was 7.2 mm. Moreover, the zone of inhibition at 20 µg/mL in assay [8] came out at 8.5 mm. The OD in [13] is 1.67; in assay [15], 0.815. Also, the outcome in assay [14] was Active.

With `N#Cc1ccc(/C=C/S(=O)(=O)F)cc1`, the MIC99 in [1] was determined as 0.84 µg/mL (≈ 3.98 µM); in [2], 0.831 µg/mL (≈ 3.93 µM); in assay [3], 0.847 µg/mL (≈ 4.01 µM). The zone of inhibition at 50 µg/mL is 11.4 mm in assay [4] and 7.2 mm in [12]. The zone of inhibition at 0.2 µg/mL in assay [5] stood at 6.1 mm; in assay [9], 5.2 mm; in [16], 4.2 mm. In addition, the values for the zone of inhibition at 0.4 µg/mL in [6], in [10] and in [17] were 7.3 mm, 6.3 mm and 5.1 mm, respectively. Besides, the zone of inhibition at 0.8 µg/mL in [7] came to 8.5 mm; in assay [11], 7.6 mm; in assay [18], 6.2 mm. Further, the zone of inhibition at 20 µg/mL in assay [8] worked out at 7.5 mm. Moreover, the OD is 1.42 in assay [13], 0.68 in assay [19] and 0.685 in assay [15]. Also, the result in assay [14], in assay [20], in assay [21] and in [22] was Active.

Turning to `CC(=O)c1cccc(/C=C/S(=O)(=O)F)c1`, the MIC99 came out at 0.851 µg/mL (≈ 3.73 µM) in [1], 55.6 µg/mL (≈ 244 µM) in assay [2] and 0.843 µg/mL (≈ 3.69 µM) in [3]. Moreover, the zone of inhibition at 50 µg/mL in assay [4] was 10.1 mm; in assay [12], 8.2 mm. Further, the values for the zone of inhibition at 0.2 µg/mL in assay [5] and in assay [16] were 5.2 mm and 4.2 mm, respectively. The figures for the zone of inhibition at 0.4 µg/mL in assay [6] and in [17] were 7.5 mm and 5.2 mm, respectively. The zone of inhibition at 0.8 µg/mL in assay [7] was 8.1 mm; in assay [18] it was 6.2 mm. Besides, in [8], the zone of inhibition at 20 µg/mL amounted to 3.3 mm. Also, in assay [13], the OD is listed as 1.28. For the same compound, the result in assay [23], in assay [20], in assay [21] and in [22] was Active.

For the compound `O=S(=O)(F)/C=C/c1cc(Cl)cc(Cl)c1`, the MIC99 in [1] is 0.812 µg/mL (≈ 3.18 µM); in [2], 48.1 µg/mL (≈ 188 µM); in assay [3], 16.3 µg/mL (≈ 63.9 µM). Also, the zone of inhibition at 50 µg/mL was determined as 20.1 mm in assay [4] and 13.1 mm in assay [12]. Besides, the zone of inhibition at 0.2 µg/mL in assay [5] is 6.2 mm; in assay [16], 0 mm. For the same compound, the zone of inhibition at 0.4 µg/mL in [6] was found to be 10.2 mm; in assay [17], 3.3 mm. Besides, the zone of inhibition at 0.8 µg/mL in [7] came to 14.2 mm; in assay [18], 5.1 mm. Also, the zone of inhibition at 20 µg/mL in assay [8] came to 4.4 mm. The OD in assay [13] is 1.34; in assay [15], 0.825. The result in [14], in assay [20], in assay [21] and in assay [22] was Active.

By MIC99 is commonly meant the lowest concentration that inhibits either 99% of growth or 99% of the strains tested, depending on the study.
